Source: patent publication US9546201B2, “MUC-1 cytoplasmic domain peptides as inhibitors of cancer” (DANA-FARBER CANCER INSTITUTE, INC., priority 2008, dated 2017)
Where a SMILES comes first, the peptide text is derived from it. Where no end group is shown, it is not given here. [ ]: non-standard residue; d: D form.

Columns and labels:
[1] = target: T1, His-MUC1-CD oligomers (Homo sapiens, UniProt P15941); experiment: Oligomer formation of purified His-MUC1-CD (non-reducing SDS-polyacrylamide gel, anti-MUC1-C immunoblot); type: biochemical; conditions: 200 μM peptide, 1 h at room temperature
T1 sequence (P15941 1184-1255): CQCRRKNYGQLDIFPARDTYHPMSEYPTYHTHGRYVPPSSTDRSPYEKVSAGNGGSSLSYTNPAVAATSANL
Method: (§1) FIGS. 1A-D. MUC1/CQC peptide blocks MUC1 oligomerization. (FIG. 1A) Schematic representation of the MUC1-C subunit and the 72-amino acid sequence of MUC1-CD (SEQ ID NO: 1) are shown. The N-terminal 15 amino acids (shaded sequence; SEQ ID NO: 3) MUC1/CQC (SEQ ID NO: 63) and mutated MUC1/AQA (SEQ ID NO: 60) peptides were synthesized with the poly-dArg transduction domain. (FIG. 1B) His-MUC1-CD (1.4 mg/ml) was immobilized on a sensor chip in a BIAcore. MUC1/CQC was injected over the chip at 10 μM. Raw binding data were analyzed by BIAevaluation software version 3.0 and fit to a 1:1 Languir binding model. (FIG. 1C) Purified His-MUC1-CD (1.5 mg/ml) was incubated with PBS, 200 μM MUC1/CQC or 200 μM MUC1/AQA for 1 h at room temperature. The proteins were separated in a non-reducing SDS-polyacrylamide gel and analyzed by immunoblotting with anti-MUC1-C. (FIG. 1D) 293 cells were transiently transfected to express an empty vector or GFP-MUC1-CD and Flag-MUC1-CD. At 48 h after transfection, the cells were treated with 5 μM MUC1/CQC or MUC1/AQA for 3 d. The cells were then harvested for immunoblotting with anti-MUC1-C (left panel). […]
(§2) The MUC1 cytoplasmic domain (MUC1-CD) contains a CQC motif that is necessary for the formation of oligomers and nuclear localization (Leng et al., 2007). […] Purified His-tagged MUC1-CD forms oligomers as detected by electrophoresis in polyacrylamide gels (FIG. 1C). […]

[2] = test system: ZR-75-1 cells; experiment: Cell cycle distribution, apoptosis and necrosis by flow cytometry, ZR-75-1; type: cell-based, human; conditions: 5 μM; for induction of necrosis: detectable at 72 h, more prominent at 96 h
Method: FIGS. 3A-D. MUC1/CQC peptide induces S phase arrest and necrosis. ZR-75-1 (FIGS. 3A-B) and MCF-7 (FIGS. 3C-D) cells were treated with 5 μM MUC1/CQC or MUC1/AQA for 3 and 4 d. Cells were fixed and analyzed for cell cycle distribution by flow cytometry (FIGS. 3A and 3C). The percentage of cells in G1, S and G2/M phases is included in the panels. Cells were also stained with propidium iodide and analyzed by flow cytometry for necrosis (FIGS. 3B and 3D). The percentage of necrotic cells is included in the panels.
Cells were harvested, washed with PBS, fixed with 80% ethanol, and incubated in PBS containing 40 μg/ml RNAse and 40 μg/ml propidium iodide for 30 min at 37° C. Cell cycle distribution was determined by flow cytometry. Sub-G1 DNA content was assessed by staining ethanol-fixed and citrate buffer-permeabilized cells with propidium iodide and monitoring by flow cytometry as described (Yin et al., 2007). For assessment of necrosis, cells were incubated with 1 μg/ml propidium iodide/PBS for 5 min at room temperature and then monitored by flow cytometry as described (Yin et al., 2007).
To determine whether the MUC1/CQC peptide affects growth, ZR-75-1 cells were treated with 5 μM MUC1/CQC for 72 h and monitored for cell cycle distribution. […] These findings indicate that the MUC1/CQC peptide inhibits growth and induces necrosis of human breast cancer cells.

[3] = target: T2, complexes of GFP-MUC1-CD and Flag-MUC1-CD (Homo sapiens, UniProt P15941); experiment: Coprecipitation of GFP-MUC1-CD and Flag-MUC1-CD in transfected 293 cells; type: cell-based; conditions: 5 μM peptide for 3 d
T2 construct: expressed in transfected cells; host or cells: 293 cells
T2 sequence (P15941 1184-1255 limits assumed): T1 sequence (P15941 1184-1255)
Method: as §1, with “anti-MUC1-C.” for “anti-MUC1-C. (FIG. 1D) 293 cells were transiently transfected to express an empty vector or GFP-MUC1-CD and Flag-MUC1-CD. At 48 h after transfection, the cells were treated with 5 μM MUC1/CQC or MUC1/AQA for 3 d. The cells were then harvested for immunoblotting with anti-MUC1-C (left panel).”
Whole cell and nuclear lysates were prepared as described (Leng et al., 2007). […] Immunoprecitates and soluble proteins were analyzed by immunoblotting with anti-His (Cell Signaling Technology, Danvers, Mass.), anti-GFP (Millipore, Danvers, Mass.), anti-Flag, anti-MUC1-C (Abl; NeoMarkers, Fremont, Calif.), anti-lamin B (EMD, La Jolla, Calif.) or anti-β-actin (Sigma). Reactivity was detected with horseradish peroxidase-conjugated second antibodies and chemiluminescence. […]

[4] = target: T3, His-MUC1-CD (Homo sapiens, UniProt P15941); experiment: BIAcore binding to immobilized His-MUC1-CD; conditions: data not shown
T3 sequence (P15941 1184-1255): T1 sequence (P15941 1184-1255)
Method: as §1, §2

| Compound | oligomer formation of His-MUC1-CD [1] | sub-G1 DNA content (apoptosis) [2] | cell cycle distribution ([2]; 72 h) | S phase population ([2]; 96 h) | induction of necrosis [2] | interaction between Flag-MUC1-CD and GFP-MUC1-CD [3] | binding to His-MUC1-CD [4] |
| --- | --- | --- | --- | --- | --- | --- | --- |
| CC[C@H](C)[C@H](NC(=O)[C@H](CC(=O)O)NC(=O)[C@H](CC(C)C)NC(=O)[C@H](CCC(N)=O)NC(=O)CNC(=O)[C@H](Cc1ccc(O)cc1)NC(=O)[C@H](CC(N)=O)NC(=O)[C@H](CCCCN)NC(=O)[C@H](CCCNC(=N)N)NC(=O)[C@H](CCCNC(=N)N)NC(=O)[C@H](CS)NC(=O)[C@H](CCC(N)=O)NC(=O)[C@H](CS)NC(=O)[C@@H](CCCNC(=N)N)NC(=O)[C@@H](CCCNC(=N)N)NC(=O)[C@@H](CCCNC(=N)N)NC(=O)[C@@H](CCCNC(=N)N)NC(=O)[C@@H](CCCNC(=N)N)NC(=O)[C@@H](CCCNC(=N)N)NC(=O)[C@@H](CCCNC(=N)N)NC(=O)[C@@H](CCCNC(=N)N)NC(=O)[C@H](N)CCCNC(=N)N)C(=O)N[C@@H](Cc1ccccc1)C(=O)N1CCC[C@H]1C(=O)O [MUC1/CQC] (H-[dR][dR][dR][dR][dR][dR][dR][dR][dR]CQCRRKNYGQLDIFP-OH; N-terminus and C-terminus assumed) | substantially decreased oligomer formation | little if any accumulation of cells with sub-G1 DNA content | substantial arrest in S phase | S phase population was decreased | induction of necrosis | disruption of the interaction |  |
| MUC1/AQA: control peptide in which the CQC motif was altered to AQA, with poly-dArg transduction domain; SEQ ID NO: 60 ([dR][dR][dR][dR][dR][dR][dR][dR][dR]AQARRKNYGQLDIFP) [reference compound] | little if any effect |  |  |  | not | no apparent effect | no apparent binding |
